# Assay results from patent US20070185161A1, “Bicyclic substituted indole-derivative steroid hormone nuclear receptor modulators” (priority 2004, published 2007).
# Target: T1, human MR (Homo sapiens, UniProt P08235)
# T1 construct: The full length human MR gene is cloned from a human kidney or human brain cDNA library; made in house; host or cells: SF9 insect cells (baculovirus)
# T1 sequence (P08235 1-984): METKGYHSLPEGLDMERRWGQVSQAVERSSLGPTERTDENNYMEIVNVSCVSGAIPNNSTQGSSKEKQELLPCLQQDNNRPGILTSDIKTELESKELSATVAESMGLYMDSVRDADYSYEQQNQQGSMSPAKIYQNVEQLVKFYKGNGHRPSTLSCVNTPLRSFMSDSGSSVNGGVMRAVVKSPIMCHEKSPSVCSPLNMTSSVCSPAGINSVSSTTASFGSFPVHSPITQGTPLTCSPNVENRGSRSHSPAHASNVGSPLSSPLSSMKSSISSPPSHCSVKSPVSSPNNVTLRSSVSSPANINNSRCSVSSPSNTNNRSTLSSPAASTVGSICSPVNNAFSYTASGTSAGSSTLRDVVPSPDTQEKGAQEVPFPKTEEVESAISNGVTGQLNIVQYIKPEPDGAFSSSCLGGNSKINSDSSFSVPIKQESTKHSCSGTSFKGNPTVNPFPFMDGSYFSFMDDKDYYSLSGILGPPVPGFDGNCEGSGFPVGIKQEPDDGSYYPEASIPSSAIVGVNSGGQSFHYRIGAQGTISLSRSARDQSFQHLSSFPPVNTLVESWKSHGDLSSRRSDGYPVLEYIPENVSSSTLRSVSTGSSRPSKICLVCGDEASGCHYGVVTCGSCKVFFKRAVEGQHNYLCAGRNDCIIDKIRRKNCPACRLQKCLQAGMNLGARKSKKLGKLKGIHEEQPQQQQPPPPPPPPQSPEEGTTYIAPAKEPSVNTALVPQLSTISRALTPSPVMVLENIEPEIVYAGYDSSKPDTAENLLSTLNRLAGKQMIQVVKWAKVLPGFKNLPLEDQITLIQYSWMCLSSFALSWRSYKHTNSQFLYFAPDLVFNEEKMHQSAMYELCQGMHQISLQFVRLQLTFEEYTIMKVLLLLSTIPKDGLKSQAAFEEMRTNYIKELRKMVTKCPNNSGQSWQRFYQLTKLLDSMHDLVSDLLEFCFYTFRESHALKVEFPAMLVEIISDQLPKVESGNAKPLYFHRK
# Experiment: Mineralocorticoid Receptor Binding Assay (Method 1)
# Settings: [3H]-aldosterone, racemic mixture unless otherwise indicated
# Experimental: The full length human MR gene is cloned from a human kidney or human brain cDNA library. Briefly, using synthetic oligonucleotide primers (Eli Lilly and Company, Indianapolis) directed to nucleotides 20-54 and 3700-3666 of the human MR, polymerase chain reaction (PCR) is performed under standard conditions using a human cDNA library. The PCR reaction is performed in a final volume of 50 μl containing about 1 μl of a 50× stock solution of polymerase; about 1 μl of a 50× stock solution of dNTP; about 5 μl of an appropriate PCR buffer; about 1 μl of each primer; about 5 μl of a H. kidney or H. brain cDNA library; and about 36 μl of water. The reaction is allowed to denature for about 30 seconds at 95 degrees Celsius, anneal for about 30 seconds at 55 degrees Celsius, and extend for about 5 minutes at 72 degrees Celsius, the sequence being repeated for a total of about 35 cycles. The desired PCR product (3.68 Kb) is confirmed by gel electrophoresis and subsequently cut from the gel and stored at about −20 degrees Celsius until extraction. To extract the cDNA product from the agarose gel, the QIAEX II Gel Extraction protocol (QIAGEN, Inc.) is employed according to the manufacturer's instructions. Following extraction, the MR cDNA is cloned into an appropriate cloning vector (Zero Blunt TOPO PCR Cloning Kit (Invitrogen, Inc.) and a pAcHLT-baculovirus transfer vector (B.D./Pharminogen), then expressed in SF9 insect cells, essentially according to manufacturer's instructions. Sf9 cells are grown at a scale where gram quantity cell pellets are obtained for subsequent use in the MR binding assay. Harvested cell pellets are lysed by repeated freeze-thaw cycles (about 4) in a suitable lysis buffer then centrifuged at about 1×10^3 G (with the supernatant being saved for future assays).
# MR binding assays are performed in a final total volume of about 250 μl containing about 20-25 μg of protein and 0.5 nM of [^3H]-aldosterone plus varying concentrations of test compound or vehicle. The assay binding buffer consists of 30 mM sodium molybdate, 30 mM of TRIS-HCl, 5 mM sodium phosphate, 5 mM sodium pyrophosphate, and about 10% glycerol, pH=7.5.
# Briefly, assays are prepared at RT in 96-well Falcon 3072 plates, each well containing 210 μl of binding buffer, 10 μl of [^3H]-aldosterone, 10 μl of test compound/vehicle, and 20 μl of the resuspended receptor protein extract. Incubations are carried out at 4 degrees Celsius with shaking for about 16 hours. 200 μl aliquots of each incubation are filtered onto Millipore HA 0.45 micron 96-well filter plates, pre-moistened with cold 30 mM TRIS-HCl. The filter plates are suctioned dry with vacuum and immediately washed 3× with cold 30 mM TRIS-HCl. The plates are then punched out and the amount of receptor-ligand complex is determined by liquid scintillation counting using 4 ml of Ready Protein Plus™ liquid scintillation cocktail.
# IC50 values (defined as the concentration of test compound required to decrease [^3H]-aldosterone binding by 50%) are then determined. Ki values for each respective test compound can then be calculated by application of the Cheng-Prusoff equation as described in Cheng et al., Relationship Between The Inhibition Constant (Ki) and The Concentration of Inhibitor Which Causes 50% Inhibition (IC50) of an Enzymatic Reaction, Biochem. Pharmacol., 22: 3099-31088; (1973).
row,SMILES,Ki
1,"CC1(c2c[nH]c3c(NS(C)(=O)=O)cccc23)CCCc2cc(F)ccc21 (racemic) [Example 28, N-[3-(6-Fluoro-1-methyl-1,2,3,4-tetrahydro-naphthalen-1-yl)-1H-indol-7-yl]-methanesulfonamide]",≤ 500 nM
2,"CCC1(c2c[nH]c3c(NS(=O)(=O)CC)cccc23)CCc2cc(F)ccc21 (stereo not shown) [Example 19, Ethanesulfonic acid [3-(1-ethyl-5-fluoro-indan-1-yl)-1H-indol-7-yl]-amide]",≤ 500 nM
3,"CS(=O)(=O)Nc1cccc2c(C3(CCCO)CCc4cc(F)ccc43)c[nH]c12 (racemic) [Example 40, N-{3-[5-Fluoro-1-(3-hydroxy-propyl)-indan-1-yl]-1H-indol-7-yl}-methanesulfonamide]",≤ 500 nM
4,"CC1(c2c[nH]c3c(NS(C)(=O)=O)cccc23)CCc2cc(F)ccc21 (racemic) [Example 21, N-[3-(5-Fluoro-1-methyl-indan-1-yl)-1H-indol-7-yl]-methanesulfonamide]",≤ 500 nM
5,CCC1(c2c[nH]c3c(NS(=O)(=O)N(C)C)cccc23)CCc2cc(F)ccc21 (stereo not shown) [Example 17],≤ 500 nM
6,"CCC1(c2c[nH]c3c(NS(C)(=O)=O)cccc23)CCCc2cc(F)ccc21 (racemic) [Example 29, N-[3-(1-Ethyl-6-fluoro-1,2,3,4-tetrahydro-naphthalen-1-yl)-1H-indol-7-yl]-methanesulfonamide]",≤ 500 nM
7,"CC1(c2c[nH]c3c(NS(C)(=O)=O)cccc23)CCc2cc(F)cc(F)c21 (single isomer, unassigned) [Example 22B, N-[3-(5,7-Difluoro-1-methyl-indan-1-yl)-1H-indol-7-yl]-methanesulfonamide]",≤ 500 nM
8,"CCC1(c2c[nH]c3c(NS(C)(=O)=O)cccc23)CCc2cc(F)ccc21 (racemic) [Example 1, N-[3-(1-ethyl-5-fluoro-indan-1-yl)-1H-indol-7-yl]-methanesulfonamide]",≤ 500 nM
9,"CCC1(c2c[nH]c3c(NS(C)(=O)=O)cccc23)CCOc2cc(F)cc(F)c21 (racemic) [Example 36, N-[3-(4-Ethyl-5,7-difluoro-chroman-4-yl)-1H-indol-7-yl]-methanesulfonamide]",≤ 500 nM
10,"CS(=O)(=O)Nc1cccc2c(C3(C4CC4)CCc4cc(F)ccc43)c[nH]c12 (racemic) [Example 39, N-[3-(1-Cyclopropyl-5-fluoro-indan-1-yl)-1H-indol-7-yl]-methanesulfonamide]",≤ 500 nM
11,"CC1(c2c[nH]c3c(NS(C)(=O)=O)cccc23)CCc2cc(-n3cccn3)ccc21 (stereo not shown) [Example 24, N-[3-(1-Methyl-5-pyrazol-1-yl-indan-1-yl)-1H-indol-7-yl]-methanesulfonamide]",≤ 500 nM
12,"CCC1(c2c[nH]c3c(NS(C)(=O)=O)cccc23)CCCc2cc(F)cc(F)c21 (racemic) [Example 31, N-[3-(1-Ethyl-6,8-difluoro-1,2,3,4-tetrahydro-naphthalen-1-yl)-1H-indol-7-yl]-methanesulfonamide]",≤ 500 nM
13,"CCC1(c2c[nH]c3c([N+](=O)[O-])cccc23)CCc2cc(F)ccc21 (stereo not shown) [Example 2, 3-(1-Ethyl-5-fluoro-indan-1-yl)-7-nitro-1H-indole]",≤ 500 nM
14,"CC1(c2c[nH]c3c(NS(C)(=O)=O)cccc23)CCCCc2ccccc21 (stereo not shown) [Example 38, N-[3-(5-Methyl-6,7,8,9-tetrahydro-5H-benzocyclohepten-5-yl)-1H-indol-7-yl]-methanesulfonamide]",≤ 500 nM
15,"CC1(c2c[nH]c3c(NS(C)(=O)=O)cccc23)CCCc2ccccc21 (stereo not shown) [Example 26, N-[3-(1-Methyl-1,2,3,4-tetrahydro-naphthalen-1-yl)-1H-indol-7-yl]-methanesulfonamide]",≤ 500 nM
16,"CC1(c2c[nH]c3c(NS(C)(=O)=O)cccc23)CCOc2ccc(F)cc21 (stereo not shown) [Example 33, N-[3-(6-Fluoro-4-methyl-chroman-4-yl)-1H-indol-7-yl]-methanesulfonamide]",≤ 500 nM
17,"CCC1(c2c[nH]c3c(NC(C)=O)cccc23)CCc2cc(F)ccc21 (stereo not shown) [Example 16, N-[3-(1-ethyl-5-fluoro-indan-1-yl)-1H-indol-7-yl]-acetamide]",≤ 500 nM

# More lines, now with the values ahead:
row,Ki,SMILES
1,≤ 500 nM,"CCC1(c2c[nH]c3c(NS(C)(=O)=O)cccc23)CCOc2cc(F)cc(F)c21 (single isomer, unassigned) [Example 36B, N-[3-(4-Ethyl-5,7-difluoro-chroman-4-yl)-1H-indol-7-yl]-methanesulfonamide]"
2,≤ 500 nM,"CS(=O)(=O)Nc1cccc2c(C3(CCCO)CCc4cc(F)ccc43)c[nH]c12 (single isomer, unassigned) [Example 40B, N-{3-[5-Fluoro-1-(3-hydroxy-propyl)-indan-1-yl]-1H-indol-7-yl}-methanesulfonamide]"
3,≤ 500 nM,"CC1(c2c[nH]c3c(NS(C)(=O)=O)cccc23)CCCc2cc(F)ccc21 (single isomer, unassigned) [Example 28A, N-[3-(6-Fluoro-1-methyl-1,2,3,4-tetrahydro-naphthalen-1-yl)-1H-indol-7-yl]-methanesulfonamide]"
4,≤ 500 nM,"CC1(c2c[nH]c3c(NS(C)(=O)=O)cccc23)CCOc2cc(F)ccc21 (single isomer, unassigned) [Example 34B, N-[3-(7-Fluoro-4-methyl-chroman-4-yl)-1H-indol-7-yl]-methanesulfonamide]"
5,≤ 500 nM,"CCC1(c2c[nH]c3c(NS(C)(=O)=O)cccc23)CCOc2cc(F)ccc21 (single isomer, unassigned) [Example 35B, N-[3-(4-Ethyl-7-fluoro-chroman-4-yl)-1H-indol-7-yl]-methanesulfonamide]"
6,≤ 500 nM,"CCC1(c2c[nH]c3c(NS(C)(=O)=O)cccc23)CCCc2cc(F)ccc21 (single isomer, unassigned) [Example 29A, N-[3-(1-Ethyl-6-fluoro-1,2,3,4-tetrahydro-naphthalen-1-yl)-1H-indol-7-yl]-methanesulfonamide]"
7,≤ 500 nM,"CC1(c2c[nH]c3c(NS(C)(=O)=O)cccc23)CCCc2cc(F)ccc21 (single isomer, unassigned) [Example 28B, N-[3-(6-Fluoro-1-methyl-1,2,3,4-tetrahydro-naphthalen-1-yl)-1H-indol-7-yl]-methanesulfonamide]"
8,≤ 500 nM,"CCC1(c2c[nH]c3c(NS(C)(=O)=O)cccc23)CCc2cc(F)cc(F)c21 (single isomer, unassigned) [Example 23B, N-[3-(1-Ethyl-5,7-difluoro-indan-1-yl)-1H-indol-7-yl]-methanesulfonamide]"
